According to US20260250257A1, “ANTIBACTERIAL AND SYNERGISTIC ACTIVE COMPOUND AND USE THEREOF” (EAST CHINA UNIVERSITY OF SCIENCE AND TECHNOLOGY, priority 2023, published 2026):
Converted amounts (≈) assume the structure as drawn.

What was measured:
Format in all cases: cell-based
[1] = tested on: ATCC25922 strain (Escherichia coli); test: Checkerboard antibacterial synergistic activity test with polymyxin E (FIC); set-up: key: FIC≤0.5 synergy; 0.5–1 additive; 1–2 indifferent; ≥2 antagonism; details: combined with polymyxin E
Summary of the method: (§1)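 Interaction is reported as the fractional inhibitory concentration, read after 16 h of growth at 37° C. in Mueller-Hinton broth. Each well paired one level of polymyxin E (prepared at 16 to 0.015 μg/ml) with one of the test agent (prepared at 256 to 4 μg/ml) before bacteria were added.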

[2] = tested on: ATCC13883 strain (Klebsiella pneumoniae); test: as above; set-up: key: FIC≤0.5 synergy; 0.5–1 additive; 1–2 indifferent; ≥2 antagonism; details: combined with polymyxin E
Summary of the method: as §1

[3] = tested on: ATCC19606 strain (Acinetobacter baumannii); test: as above; set-up: key: FIC≤0.5 synergy; 0.5–1 additive; 1–2 indifferent; ≥2 antagonism; details: combined with polymyxin E
Summary of the method: as §1

[4] = tested on: ATCC9027 strain (Pseudomonas aeruginosa); test: as above; set-up: key: FIC≤0.5 synergy; 0.5–1 additive; 1–2 indifferent; ≥2 antagonism; details: combined with polymyxin E
Summary of the method: as §1

[5] = tested on: ATCC25922 strain (Escherichia coli); test: Broth microdilution, antibacterial activity of the compound used alone
Excerpt: (§2) The broth microdilution method was used to test the antibacterial effects of the compounds of the present invention against various Gram-negative bacterial strains when used alone.

[6] = tested on: ATCC13883 strain (Klebsiella pneumoniae); test: as above
Excerpt: as §2

[7] = tested on: ATCC19606 strain (Acinetobacter baumannii); test: as above
Excerpt: as §2

[8] = tested on: ATCC9027 strain (Pseudomonas aeruginosa); test: as above
Excerpt: as §2

| SMILES | Synergistic activity (FIC value) ATCC25922 [1] | Synergistic activity (FIC value) ATCC13883 [2] | Synergistic activity (FIC value) ATCC19606 [3] | Synergistic activity (FIC value) ATCC9027 [4] | Antibacterial activity of the compound of Formula I, ATCC25922 [5] | Antibacterial activity of the compound of Formula I, ATCC13883 [6] | Antibacterial activity of the compound of Formula I, ATCC19606 [7] | Antibacterial activity of the compound of Formula I, ATCC9027 [8] | MIC ([5]; read-out: Antibacterial activity of the compound of Formula I, ATCC25922) | MIC ([6]; read-out: Antibacterial activity of the compound of Formula I, ATCC13883) | MIC ([7]; read-out: Antibacterial activity of the compound of Formula I, ATCC19606) | MIC ([8]; read-out: Antibacterial activity of the compound of Formula I, ATCC9027) |
| --- | --- | --- | --- | --- | --- | --- | --- | --- | --- | --- | --- | --- |
| NC(N)=Nc1nc(-c2ccccc2Cl)c[nH]1 [Compound I-36] | 0.56 | 0.31 | 0.25 | 0.5 | 128 µg/mL | 128 µg/mL | 256 µg/mL | 64 µg/mL | – | – | – | – |
| NC(N)=Nc1nc(-c2c(Cl)cc(Cl)cc2Cl)c[nH]1 [Compound I-52] | 0.5 | 0.25 | 0.3 | 0.63 | 256 µg/mL | 256 µg/mL | 256 µg/mL | 256 µg/mL | – | – | – | – |
| CC(C)c1cc(-c2c[se]c(N=C(N)N)n2)cc(C(C)C)c1 [Compound I-18] | 0.39 | 0.33 | 0.15 | 0.62 | 256 µg/mL | 256 µg/mL | 256 µg/mL | 256 µg/mL | – | – | – | – |
| Cc1sc(N=C(N)N)nc1-c1ccc(Cl)cc1Oc1ccc(Cl)cc1Cl [Compound I-89] | 0.15 | 0.13 | 0.02 | 0.18 | 256 µg/mL | 256 µg/mL | 256 µg/mL | 256 µg/mL | – | – | – | – |
| NC(N)=Nc1nc(-c2ccc3ccccc3c2)cs1 [Compound I-56] | 0.5 | 1.25 | 1.25 | 1.25 | – | – | – | – | 256 µg/mL (≈ 954 µM) | 256 µg/mL (≈ 954 µM) | 256 µg/mL (≈ 954 µM) | 256 µg/mL (≈ 954 µM) |
| NC(N)=Nc1nc(-c2ccccc2Oc2ccccc2Cl)cs1 [Compound I-84] | 0.27 | 0.09 | 0.63 | 0.04 | 256 µg/mL | 256 µg/mL | 256 µg/mL | 256 µg/mL | – | – | – | – |
| Oc1ccc(-c2ccccn2)c(-c2c[se]c(N=C3NCCCN3)n2)c1 [Compound I-137] | 0.5 | 1.25 | 1.25 | 1.25 | 128 µg/mL | 128 µg/mL | 256 µg/mL | 128 µg/mL | – | – | – | – |
| CSc1cc2cccc(C)n2c1-c1nc(N=C(N)N)sc1Cl [Compound I-127] | 0.14 | 0.09 | 0.31 | 0.06 | 128 µg/mL | 128 µg/mL | 256 µg/mL | 64 µg/mL | – | – | – | – |
| CC(C)(C)c1cccc(-c2c[se]c(N=C(N)N)n2)c1 [Compound I-11] | 0.5 | 0.25 | 0.3 | 0.63 | 256 µg/mL | 256 µg/mL | 256 µg/mL | 256 µg/mL | – | – | – | – |
| NC(N)=Nc1nc(-c2ccc3c(c2)COc2c-3ccc3c2C(=O)CCC3)cs1 [Compound I-119] | 1.25 | 0.19 | 1.25 | 1.25 | 256 µg/mL | 256 µg/mL | 256 µg/mL | 256 µg/mL | – | – | – | – |
| COc1ccc(-c2csc(N=C(N)N)n2)cc1 [Compound I-6] | 0.5 | 1.25 | 0.75 | 1.25 | 256 µg/mL | 256 µg/mL | 256 µg/mL | 256 µg/mL | – | – | – | – |
| CSc1cc2cc(C)cc(C)n2c1-c1nc(N=C(N)N)oc1C [Compound I-128] | 0.18 | 0.16 | 0.03 | 0.28 | 256 µg/mL | 256 µg/mL | 256 µg/mL | 256 µg/mL | – | – | – | – |
